Data reported in the OligoGym collection.
Values joined by “and” are separate entries in the source; they are usually repeats but may differ in a detail not shown here. Equal entries are not always repeated. HELM strings list units from the 5' end as sugar, base in round brackets, then linkage (d deoxyribose, r ribose, m 2'-O-methyl, p phosphodiester). Methylation of C is not given here. [moe] = 2'-O-(2-methoxyethyl) (MOE); [cEt] = constrained ethyl (cEt); [sp] = phosphorothioate linkage

Biological target: HBV
Conditions: ASO

Substance | target mRNA inhibition (HepG2, 0.07 µM) | target mRNA inhibition (HepG2, 0.0092593 µM) [%] | target mRNA inhibition (HepG2, 0.0277778 µM) [%] | target mRNA inhibition (HepG2, 0.0833333 µM) [%] | target mRNA inhibition (HepG2, 0.25 µM) [%]
RNA1{[moe](A)[sp].[moe](T)[sp].d(G)[sp].d(A)[sp].d(G)[sp].d(G)[sp].d(C)[sp].d(A)[sp].d(T)[sp].d(A)[sp].d(G)[sp].[moe](C)[sp].[moe](A)[sp].[moe](G)[sp].[moe](C)[sp].[moe](A)}$$$$V2.0 | 53% and 32% | – | – | – | –
RNA1{[moe](A)[sp].[moe](T)[sp].d(T)[sp].d(T)[sp].d(A)[sp].d(T)[sp].d(G)[sp].d(C)[sp].d(C)[sp].d(T)[sp].d(A)[sp].[moe](C)[sp].[moe](A)[sp].[moe](G)[sp].[moe](C)[sp].[moe](C)[sp].[moe](T)}$$$$V2.0 | 71% and 65% | 0 | 21 | 22 | 53
RNA1{[moe](A)[sp].[moe](T)[sp].d(T)[sp].d(T)[sp].d(A)[sp].d(T)[sp].d(G)[sp].d(C)[sp].d(C)[sp].d(T)[sp].d(A)[sp].[moe](C)[sp].[moe](A)[sp].[moe](G)[sp].[moe](C)[sp].[moe](C)}$$$$V2.0 | 36% and 25% | – | – | – | –
RNA1{[moe](C)[sp].[cEt](A)[sp].[cEt](C)[sp].d(T)[sp].d(A)[sp].d(G)[sp].d(T)[sp].d(A)[sp].d(A)[sp].d(A)[sp].d(C)[sp].d(T)[sp].d(G)[sp].[cEt](A)[sp].[cEt](G)[sp].[moe](C)}$$$$V2.0 | 73% and 71% | – | – | – | –
RNA1{[moe](C)[sp].[cEt](A)[sp].[cEt](C)[sp].d(T)[sp].d(G)[sp].d(A)[sp].d(A)[sp].d(C)[sp].d(A)[sp].d(A)[sp].d(A)[sp].d(T)[sp].d(G)[sp].[cEt](G)[sp].[cEt](C)[sp].[moe](A)}$$$$V2.0 | 65% and 75% | – | – | – | –
RNA1{[moe](C)[sp].[cEt](A)[sp].[cEt](G)[sp].d(C)[sp].d(A)[sp].d(A)[sp].d(A)[sp].d(C)[sp].d(A)[sp].d(C)[sp].d(T)[sp].d(T)[sp].d(G)[sp].[cEt](G)[sp].[cEt](C)[sp].[moe](A)}$$$$V2.0 | 62% and 61% | – | – | – | –
RNA1{[moe](C)[sp].[cEt](C)[sp].d(A)[sp].d(A)[sp].d(T)[sp].d(T)[sp].d(T)[sp].d(A)[sp].d(T)[sp].d(G)[sp].d(C)[sp].d(C)[sp].[cEt](T)[sp].[moe](A)[sp].[cEt](C)[sp].[moe](A)}$$$$V2.0 | 37% and 55% | – | – | – | –
RNA1{[moe](C)[sp].[cEt](C)[sp].d(A)[sp].d(C)[sp].d(T)[sp].d(G)[sp].d(A)[sp].d(A)[sp].d(C)[sp].d(A)[sp].d(A)[sp].d(A)[sp].[cEt](T)[sp].[moe](G)[sp].[cEt](G)[sp].[moe](C)}$$$$V2.0 | 76% and 78% | – | – | – | –
RNA1{[moe](C)[sp].[cEt](G)[sp].d(A)[sp].d(A)[sp].d(C)[sp].d(C)[sp].d(A)[sp].d(C)[sp].d(T)[sp].d(G)[sp].d(A)[sp].d(A)[sp].[cEt](C)[sp].[moe](A)[sp].[cEt](A)[sp].[moe](A)}$$$$V2.0 | 45% and 49% | – | – | – | –
RNA1{[moe](C)[sp].[cEt](G)[sp].d(C)[sp].d(A)[sp].d(G)[sp].d(T)[sp].d(A)[sp].d(T)[sp].d(G)[sp].d(G)[sp].d(A)[sp].d(T)[sp].[cEt](C)[sp].[moe](G)[sp].[cEt](G)[sp].[moe](C)}$$$$V2.0 | 83% and 92% | 22 | 49 | 82 | 91
RNA1{[moe](C)[sp].[cEt](T)[sp].[cEt](A)[sp].d(G)[sp].d(T)[sp].d(A)[sp].d(A)[sp].d(A)[sp].d(C)[sp].d(T)[sp].d(G)[sp].d(A)[sp].d(G)[sp].[cEt](C)[sp].[cEt](C)[sp].[moe](A)}$$$$V2.0 | 76% and 71% | 33 | 49 | 71 | 88
RNA1{[moe](C)[sp].[cEt](T)[sp].[cEt](G)[sp].d(A)[sp].d(G)[sp].d(G)[sp].d(C)[sp].d(C)[sp].d(C)[sp].d(A)[sp].d(C)[sp].d(T)[sp].d(C)[sp].[cEt](C)[sp].[cEt](C)[sp].[moe](A)}$$$$V2.0 | 59% and 84% | 58 | 83 | 90 | 90
